{"source": "patent US20260294915A1", "about": "“COMBINATION THERAPY COMPRISING A MAT2A INHIBITOR AND A TOPOISOMERASE INHIBITOR, A SPLICING INHIBITOR SULFONAMIDE, OR A KIF18 INHIBITOR” (IDEAYA BIOSCIENCES, INC., priority 2023, published 2026)", "assay_in_all_cases": "10-day proliferation (CTG), SPLAM titration + 1000 nM Compound A, Bliss (Example 5; Tables 12-19)", "assay_type_in_all_cases": "cell-based", "set-up_in_all_cases": "key: GDI scale -100 to 100; 0 = cell number at T0; <0 cytotoxic", "settings_in_all_cases": "alone or + 1 uM Cmpd A", "key": {"RT112/84": {"test_system": "RT112/84"}, "SW900": {"test_system": "SW900"}, "UMUC11": {"test_system": "UMUC11"}, "UMUC5": {"test_system": "UMUC5"}}, "note": "Marks after values point to notes of the source that are not given here.", "data": [{"smiles": "Cc1ccc(NS(=O)(=O)c2cccc(C#N)c2)c2[nH]cc(C#N)c12", "note": "[Compound E7820, 3-cyano-N-(3-cyano-4-methyl-1H-indol-7-yl)benzenesulfonamide]", "values": [{"measurement": "GDI", "setting": "RT112/84; SPLAM 0.04 nM", "value": 89}, {"measurement": "GDI", "setting": "RT112/84; SPLAM 0.1 nM", "value": 94}, {"measurement": "GDI", "setting": "RT112/84; SPLAM 0.2 nM", "value": 100}, {"measurement": "GDI", "setting": "RT112/84; SPLAM 0.3 nM", "value": 100}, {"measurement": "GDI", "setting": "RT112/84; SPLAM 0.6 nM", "value": 100}, {"measurement": "GDI", "setting": "RT112/84; SPLAM 1.2 nM", "value": 100}, {"measurement": "GDI", "setting": "RT112/84; SPLAM 2.4 nM", "value": 100}, {"measurement": "GDI", "setting": "RT112/84; SPLAM 4.9 nM", "value": 94}, {"measurement": "GDI", "setting": "RT112/84; SPLAM 9.8 nM", "value": 100}, {"measurement": "GDI", "setting": "RT112/84; SPLAM 19.5 nM", "value": 100}, {"measurement": "GDI", "setting": "RT112/84; SPLAM 39.1 nM", "value": 100}, {"measurement": "GDI", "setting": "RT112/84; SPLAM 78.1 nM", "value": 100}, {"measurement": "GDI", "setting": "RT112/84; SPLAM 156.3 nM", "value": 90}, {"measurement": "GDI", "setting": "RT112/84; SPLAM 312.5 nM", "value": 31}, {"measurement": "GDI", "setting": "RT112/84; SPLAM 625 nM", "value": 6}, {"measurement": "GDI", "setting": "RT112/84; SPLAM 1250 nM", "value": "−35**"}, {"measurement": "GDI", "setting": "RT112/84; SPLAM 2500 nM", "value": "−84**"}, {"measurement": "GDI", "setting": "RT112/84; SPLAM 5000 nM", "value": "−100**"}, {"measurement": "GDI", "setting": "RT112/84; SPLAM 10000 nM", "value": "−100**"}, {"measurement": "GDI", "setting": "RT112/84; SPLAM 20000 nM", "value": "−100**"}, {"measurement": "GDI", "setting": "SW900; SPLAM 0.04 nM", "value": 97}, {"measurement": "GDI", "setting": "SW900; SPLAM 0.1 nM", "value": 100}, {"measurement": "GDI", "setting": "SW900; SPLAM 0.2 nM", "value": 99}, {"measurement": "GDI", "setting": "SW900; SPLAM 0.3 nM", "value": 100}, {"measurement": "GDI", "setting": "SW900; SPLAM 0.6 nM", "value": 100}, {"measurement": "GDI", "setting": "SW900; SPLAM 1.2 nM", "value": 100}, {"measurement": "GDI", "setting": "SW900; SPLAM 2.4 nM", "value": 100}, {"measurement": "GDI", "setting": "SW900; SPLAM 4.9 nM", "value": 100}, {"measurement": "GDI", "setting": "SW900; SPLAM 9.8 nM", "value": 100}, {"measurement": "GDI", "setting": "SW900; SPLAM 19.5 nM", "value": 100}, {"measurement": "GDI", "setting": "SW900; SPLAM 39.1 nM", "value": 100}, {"measurement": "GDI", "setting": "SW900; SPLAM 78.1 nM", "value": 100}, {"measurement": "GDI", "setting": "SW900; SPLAM 156.3 nM", "value": 100}, {"measurement": "GDI", "setting": "SW900; SPLAM 312.5 nM", "value": 28}, {"measurement": "GDI", "setting": "SW900; SPLAM 625 nM", "value": "−7**"}, {"measurement": "GDI", "setting": "SW900; SPLAM 1250 nM", "value": "−37**"}, {"measurement": "GDI", "setting": "SW900; SPLAM 2500 nM", "value": "−56**"}, {"measurement": "GDI", "setting": "SW900; SPLAM 5000 nM", "value": "−47**"}, {"measurement": "GDI", "setting": "SW900; SPLAM 10000 nM", "value": "−70**"}, {"measurement": "GDI", "setting": "SW900; SPLAM 20000 nM", "value": "−59**"}, {"measurement": "GDI", "setting": "UMUC11; SPLAM 0.04 nM", "value": 100}, {"measurement": "GDI", "setting": "UMUC11; SPLAM 0.1 nM", "value": 100}, {"measurement": "GDI", "setting": "UMUC11; SPLAM 0.2 nM", "value": 100}, {"measurement": "GDI", "setting": "UMUC11; SPLAM 0.3 nM", "value": 100}, {"measurement": "GDI", "setting": "UMUC11; SPLAM 0.6 nM", "value": 100}, {"measurement": "GDI", "setting": "UMUC11; SPLAM 1.2 nM", "value": 100}, {"measurement": "GDI", "setting": "UMUC11; SPLAM 2.4 nM", "value": 100}, {"measurement": "GDI", "setting": "UMUC11; SPLAM 4.9 nM", "value": 100}, {"measurement": "GDI", "setting": "UMUC11; SPLAM 9.8 nM", "value": 100}, {"measurement": "GDI", "setting": "UMUC11; SPLAM 19.5 nM", "value": 100}, {"measurement": "GDI", "setting": "UMUC11; SPLAM 39.1 nM", "value": 100}, {"measurement": "GDI", "setting": "UMUC11; SPLAM 78.1 nM", "value": 100}, {"measurement": "GDI", "setting": "UMUC11; SPLAM 156.3 nM", "value": 100}, {"measurement": "GDI", "setting": "UMUC11; SPLAM 312.5 nM", "value": 76}, {"measurement": "GDI", "setting": "UMUC11; SPLAM 625 nM", "value": 31}, {"measurement": "GDI", "setting": "UMUC11; SPLAM 1250 nM", "value": 11}, {"measurement": "GDI", "setting": "UMUC11; SPLAM 2500 nM", "value": 5}, {"measurement": "GDI", "setting": "UMUC11; SPLAM 5000 nM", "value": 4}, {"measurement": "GDI", "setting": "UMUC11; SPLAM 10000 nM", "value": 3}, {"measurement": "GDI", "setting": "UMUC11; SPLAM 20000 nM", "value": 1}, {"measurement": "GDI", "setting": "UMUC5; SPLAM 0.04 nM", "value": 100}, {"measurement": "GDI", "setting": "UMUC5; SPLAM 0.1 nM", "value": 100}, {"measurement": "GDI", "setting": "UMUC5; SPLAM 0.2 nM", "value": 100}, {"measurement": "GDI", "setting": "UMUC5; SPLAM 0.3 nM", "value": 100}, {"measurement": "GDI", "setting": "UMUC5; SPLAM 0.6 nM", "value": 100}, {"measurement": "GDI", "setting": "UMUC5; SPLAM 1.2 nM", "value": 100}, {"measurement": "GDI", "setting": "UMUC5; SPLAM 2.4 nM", "value": 100}, {"measurement": "GDI", "setting": "UMUC5; SPLAM 4.9 nM", "value": 100}, {"measurement": "GDI", "setting": "UMUC5; SPLAM 9.8 nM", "value": 100}, {"measurement": "GDI", "setting": "UMUC5; SPLAM 19.5 nM", "value": 100}, {"measurement": "GDI", "setting": "UMUC5; SPLAM 39.1 nM", "value": 100}, {"measurement": "GDI", "setting": "UMUC5; SPLAM 78.1 nM", "value": 100}, {"measurement": "GDI", "setting": "UMUC5; SPLAM 156.3 nM", "value": 99}, {"measurement": "GDI", "setting": "UMUC5; SPLAM 312.5 nM", "value": 73}, {"measurement": "GDI", "setting": "UMUC5; SPLAM 625 nM", "value": 31}, {"measurement": "GDI", "setting": "UMUC5; SPLAM 1250 nM", "value": 15}, {"measurement": "GDI", "setting": "UMUC5; SPLAM 2500 nM", "value": 15}, {"measurement": "GDI", "setting": "UMUC5; SPLAM 5000 nM", "value": 7}, {"measurement": "GDI", "setting": "UMUC5; SPLAM 10000 nM", "value": 6}, {"measurement": "GDI", "setting": "UMUC5; SPLAM 20000 nM", "value": 3}]}]}
